{"source": "paper PMC8039949", "about": "“A novel small-molecule PROTAC selectively promotes tau clearance to improve cognitive functions in Alzheimer-like models” (Theranostics, 2021)", "key": {"3xTg-AD mice": {"tested_on": "3xTg-AD mice", "assay": "Multiple-doses subcutaneous administration in 3xTg-AD mice, behavior and synaptic function", "format": "in vivo, mouse", "conditions": "9.5 m-old 3xTg-AD mice, subcutaneous 3 mg/kg every 6 days, 5 times", "experimental": "(§1) The Open field (OF) test was consisted of a 5 min session in a quadrate chamber (white opaque plastic). The chamber was divided into 16 square regions, a central field (center 4 square regions) and a periphery field. Each mouse was placed in the same position at the start of the test. Behaviors were recorded and analyzed by the video tracking system (Chengdu Taimeng Software Co., Ltd, China).\n(§2) For novel object recognition (NOR) test, the mice were habituated to a quadrate chamber (white opaque plastic) for 5 min without objects 24 h prior to the test. The chamber was cleaned with 75% ethanol between each habituation period. The day after the mice re-entered the chamber from the same starting point and were given 10 min to familiarize themselves with the object A and object B. After each period the chamber and objects were cleaned with 75% ethanol. The next day after the familiarization period, object B was replaced with noval object C, and the mice were given 10 min to explore both objects. The exploring time in object A (TA) and C (TC) was recorded using the video tracking system. The discrimination index was calculated by (TC-TA)/(TA+TC).\n(§3) The Elevated plus maze (EPM) test was performed as follows: mice were placed at the junction of the four arms of the maze (white opaque plastic), and started the test from facing an open arm. The chambers were cleaned with 75% ethanol before the next mouse was trained. The entries and duration time in each arm were recorded for 5 min by the video tracking system (Chengdu Taimeng Software Co., Ltd, China). An increase in open arm activity (duration and/or entries) reflects anti-anxiety behavior.\n(§4) The Morris water maze (MWM) test was conducted to assess the spatial learning and memory. The maze was filled with water and divided into 4 quadrants with a platform placed in one quadrant. The mice were trained to find the hidden platform for 6 consecutive days, and underwent […] training trials (once per quadrant) per day from 14:00 to 20:00 pm. In each training trial, the mouse started from one of four quadrants facing the wall of the pool and the trial ended when the animal climbed on the platform. […] The spatial memory was tested 1 d after the last training by removed the platform. The longer a mouse stayed in the previous platform-located quadrant, the better it scored the spatial memory. A video camera, fixed to the ceiling 1.5 m from the water surface, was used to record the swimming path and the time for mice to find the platform (latency) or to pass through the previous platform-located quadrant each day. The camera was connected to a digital-tracking device attached to an IBM computer (Armonk, NY).\n(§5) For fear conditioning (FC) test, the mice were placed into a square chamber with a grid floor. On the first day (day 1), each mouse was habituated to the chamber for 3 min, and then a foot shock (0.9 mA, 3 s) was delivered. Three sequential foot shocks at 3 min intervals were applied. Then the mice were returned to their home cages. On the next day (day 2), the mice were exposed to the same chamber without any stimulus for 3 min. The contextual conditioning was assessed by recording freezing behavior during the 3 min exposure. Freezing time during the 3 min was recorded for assessment of memory.\nMice used for electrophysiology experiments were deeply anesthetized as described above. When all pedal reflexes were abolished, brains were removed and placed in ice-cold oxygenated slicing solution containing the following: 225 mM sucrose, 3 mM KCl, 1.25 mM NaH2PO4, 24 mM NaHCO3, 6 mM MgSO4, 0.5 mM CaCl2, and 10 mM D-glucose. Coronal slices (300 μm thickness) were cut at 4-5 °C in the slicing solution using a Leica VT1000S vibratome and then transferred to an incubation chamber filled with oxygenated slicing solution in a 30 °C water bath for 1 h before being recorded. […]"}, "amyloid-β plaque": {"tested_on": "amyloid-β plaque", "assay": "Congo red staining of amyloid-β plaque in 3xTg-AD mice", "format": "in vivo, mouse", "conditions": "9.5 m-old 3xTg-AD mice; subcutaneous 3 mg/kg every 6 days, 5 times"}, "hTau transgenic mice": {"tested_on": "hTau transgenic mice", "assay": "Multiple-doses subcutaneous administration in hTau transgenic mice, behavior and dendritic morphology", "format": "in vivo, mouse", "conditions": "12 m-old hTau transgenic mice, subcutaneous 3 mg/kg once every 6 days, 5 times", "experimental": "as §1, §2, §3, §4, §5\nGolgi staining was performed by using a Rapid GolgiStain Kit (FD neurotechnologies, PK401) according to the manufacturer's instructions. Briefly, the animals were sacrificed and perfused for 5 min with PBS. All procedures were performed under dark condition. Brains were dissected out and immersed in impregnation solution (equal volumes of Solutions A and B, containing mercuric chloride, potassium dichromate, and potassium chromate, mixed for 24 h in advance), and stored at room temperature. Impregnation solution was replaced after 24 h. After 4 weeks, brains were transferred to Solution C and stored at 4 °C for 72 h, with the solution replaced after 24 h. […]"}, "mRNA level of tau": {"tested_on": "mRNA level of tau", "assay": "Tau mRNA level by q-PCR in HEK293-hTau cells", "format": "cell-based, human", "conditions": "20 μM for 24 h", "experimental": "Total RNA was isolated by using Trizol™ kit (Invitrogen, Carlsbad, CA, USA) and the reverse transcription reagent kit (RR037, Takara) was used to obtain cDNA. RT-PCR was performed using a StepOnePlus Real-Time PCR Detection System (AB Applied Biosystems, 272001262, Cossell Biotechnology). The PCR system contains 2 μL forward and reverse primers, 10 μL SYBR Green PCR master mixes, 1 μL cDNA and 7 μL diethylpyrocarbonate (DEPC H2O). The primer of MAPT-forward was CAGCTCCGGCACCAACAG and the MAPT-reverse was […]. The primer of β-actin-forward was […] and β-actin-reverse was […]."}, "tau with Vhl (E3 ligase)": {"biological_target": "T1, tau with Vhl (E3 ligase) (Homo sapiens, UniProt P10636+P40337)", "T1 construct": "expressed in transfected cells; host or cells: HEK293-hTau (tau stably expressed; VHL endogenous)", "T1 sequence (P10636 1-441 isoform P10636-8)": "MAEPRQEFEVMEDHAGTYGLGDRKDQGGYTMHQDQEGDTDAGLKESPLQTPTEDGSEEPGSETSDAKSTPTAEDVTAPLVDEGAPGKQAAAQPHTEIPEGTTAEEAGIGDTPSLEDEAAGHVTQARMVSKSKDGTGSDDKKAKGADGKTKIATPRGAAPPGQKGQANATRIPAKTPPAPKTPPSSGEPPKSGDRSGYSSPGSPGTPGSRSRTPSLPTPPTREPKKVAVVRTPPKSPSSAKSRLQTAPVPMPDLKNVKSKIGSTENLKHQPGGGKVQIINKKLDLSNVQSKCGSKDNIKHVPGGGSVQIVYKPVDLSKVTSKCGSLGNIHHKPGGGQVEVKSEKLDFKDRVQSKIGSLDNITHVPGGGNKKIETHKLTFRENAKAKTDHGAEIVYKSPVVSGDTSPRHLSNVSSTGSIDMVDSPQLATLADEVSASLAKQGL", "T1 sequence (P40337 whole entry)": "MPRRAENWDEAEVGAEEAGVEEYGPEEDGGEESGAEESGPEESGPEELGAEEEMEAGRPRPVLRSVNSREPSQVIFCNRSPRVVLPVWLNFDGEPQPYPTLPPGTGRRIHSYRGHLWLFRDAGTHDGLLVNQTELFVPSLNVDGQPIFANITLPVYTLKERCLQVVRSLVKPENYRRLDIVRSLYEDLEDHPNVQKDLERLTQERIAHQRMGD", "T1 sequence (Q15369 whole entry partner)": "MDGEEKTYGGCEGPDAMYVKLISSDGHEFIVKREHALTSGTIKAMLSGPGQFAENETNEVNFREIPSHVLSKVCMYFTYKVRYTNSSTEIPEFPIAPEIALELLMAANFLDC", "T1 sequence (Q15370 whole entry partner)": "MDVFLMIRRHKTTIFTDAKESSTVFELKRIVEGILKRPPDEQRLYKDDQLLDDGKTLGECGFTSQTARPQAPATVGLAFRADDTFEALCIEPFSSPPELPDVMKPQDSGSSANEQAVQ", "T1 sequence (Q13617 whole entry partner)": "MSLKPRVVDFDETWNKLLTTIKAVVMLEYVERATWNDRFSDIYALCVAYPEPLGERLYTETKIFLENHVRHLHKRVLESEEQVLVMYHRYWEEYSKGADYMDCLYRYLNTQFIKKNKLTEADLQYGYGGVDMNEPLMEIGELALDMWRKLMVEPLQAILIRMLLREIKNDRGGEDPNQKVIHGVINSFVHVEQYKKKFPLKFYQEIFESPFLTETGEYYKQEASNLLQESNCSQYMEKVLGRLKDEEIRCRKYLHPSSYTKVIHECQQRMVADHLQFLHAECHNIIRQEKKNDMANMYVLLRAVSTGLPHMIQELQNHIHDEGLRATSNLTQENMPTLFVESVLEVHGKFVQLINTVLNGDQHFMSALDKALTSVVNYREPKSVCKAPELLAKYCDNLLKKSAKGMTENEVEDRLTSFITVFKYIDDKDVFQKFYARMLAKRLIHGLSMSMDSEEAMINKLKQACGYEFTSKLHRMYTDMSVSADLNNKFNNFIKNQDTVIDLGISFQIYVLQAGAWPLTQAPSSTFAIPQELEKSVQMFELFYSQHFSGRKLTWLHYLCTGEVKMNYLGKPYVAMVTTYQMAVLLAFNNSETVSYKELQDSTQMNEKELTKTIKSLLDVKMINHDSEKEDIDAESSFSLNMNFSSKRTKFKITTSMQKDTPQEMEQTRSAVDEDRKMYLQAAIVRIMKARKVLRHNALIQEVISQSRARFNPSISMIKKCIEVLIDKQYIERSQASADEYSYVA", "T1 sequence (P62877 whole entry partner)": "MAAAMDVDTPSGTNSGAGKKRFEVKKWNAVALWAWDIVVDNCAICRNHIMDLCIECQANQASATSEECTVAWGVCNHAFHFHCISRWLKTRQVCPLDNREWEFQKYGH", "assay": "Co-immunoprecipitation of tau with Vhl and tau ubiquitination in HEK293-hTau cells", "format": "cell-based", "conditions": "20 μM for 6 h", "experimental": "Cell lysates were centrifuged at 12,000 g for 20 min at 4 °C and the supernatant were incubated with protein G agarose beads (Millipore, 16-266), pre-washed with cold PBS for 1 h at 4 °C to remove non-specific proteins. After centrifuged (14,000 g) at 4 °C for 15 min, the supernatant was collected and protein concentration was measured by BCA assay. The supernatant was sequentially incubated with primary antibodies (2 μg/100 μg) overnight at 4 °C with rotating in the first day and protein G agarose beads (20 μL/100 μL) the next day. After spin (6,000 g) for 2 min at 4 °C, the pellets were collected, washed with precooled washing buffer for 3 times, resuspended in buffer (50 mM Tris-HCl, pH 6.8, 2% SDS, 10% glycerol), boiled for 10 min, and analyzed by Western blotting."}}, "data": [{"smiles": "CC(=O)N1CCCN(c2nc(NCCc3cccs3)nc(N(C)CC(=O)NCCOCCOCCOCC(=O)N[C@H](C(=O)N3C[C@H](O)C[C@H]3C(=O)NCc3ccc(-c4scnc4C)cc3)C(C)(C)C)n2)CC1", "note": "[C004019]", "values": [{"measurement": "FC test, freezing index", "setting": "3xTg-AD mice", "value": "restored the freezing index"}, {"measurement": "NOR test, discrimination index", "setting": "3xTg-AD mice", "value": "almost completely restored the memory ability"}, {"measurement": "motor and anxiety levels (OF and EPM tests)", "setting": "3xTg-AD mice", "value": "did not significantly affect the motor and anxiety levels"}, {"measurement": "MWM test, latency to reach the platform", "setting": "3xTg-AD mice; 6 days learning trial", "value": "shorter latency to reach the platform"}, {"measurement": "spine density", "setting": "3xTg-AD mice; Golgi-cox staining", "value": "restored spine density"}, {"measurement": "neurite arborization", "setting": "3xTg-AD mice; Sholl analysis", "value": "didn't have any effect on neurite arborization"}, {"measurement": "LTP induction (fEPSP amplitude and slope)", "setting": "3xTg-AD mice; hippocampal slices", "value": "restored"}, {"measurement": "amyloid-β plaque (Congo red staining)", "setting": "amyloid-β plaque", "value": "No significant effects on amyloid-β plaque"}, {"measurement": "duration time in the open arm, elevated plus maze (EPM)", "setting": "hTau transgenic mice", "value": "no significant changes were detected"}, {"measurement": "fear condition (FC) test, freezing index", "setting": "hTau transgenic mice", "value": "improved freezing index"}, {"measurement": "free movement in open field (OF) test", "setting": "hTau transgenic mice", "value": "no significant changes were detected"}, {"measurement": "novel object recognition (NOR) test", "setting": "hTau transgenic mice", "value": "increased time exploring new object"}, {"measurement": "neurite arborization and spine density in hippocampal DG", "setting": "hTau transgenic mice; Golgi-cox staining and Sholl analysis", "value": "significantly increased"}, {"measurement": "Morris water maze (MWM) test, latency", "setting": "hTau transgenic mice; learning trial and probe trial", "value": "decreased latency to find the platform"}, {"measurement": "mRNA level of tau", "setting": "mRNA level of tau", "value": "did not significantly change the mRNA level of tau"}, {"measurement": "ubiquitination level of tau", "setting": "tau with Vhl (E3 ligase)", "value": "significantly increased the ubiquitination level of tau"}]}]}
